# Results as given in ChEMBL document CHEMBL1201862, “PubChem BioAssay data set” (2004).
#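 The compound was tested at five concentrations on cells cultured in 96-well plates, with a 48-hour exposure period. GI50 is the concentration that inhibits growth by half.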 Activity calls are given as the source filed them. Cut-off read from the data, not from the text of the source: active = GI50 up to about 1.1 µM and inactive = higher.
# How the values were obtained:
# Experiment in all cases: NCI anticancer screen, dose series, 48 h
# MCF7 = system: MCF7
# UO-31 = system: UO-31
# NCI-H460 = system: NCI-H460
# A549 = system: A549
# MDA-N = system: MDA-N
# HCT-15 = system: HCT-15
# MOLT-4 = system: MOLT-4
# SK-MEL-28 = system: SK-MEL-28
# M14 = system: M14
# HOP-92 = system: HOP-92
# RXF 393 = system: RXF 393
# CAKI-1 = system: CAKI-1
# OVCAR-5 = system: OVCAR-5
# SN12C = system: SN12C
# HCC 2998 = system: HCC 2998
# SW-620 = system: SW-620
# PC-3 = system: PC-3
# RPMI-8226 = system: RPMI-8226
# NCI-H522 = system: NCI-H522
# UACC-62 = system: UACC-62
# UACC-257 = system: UACC-257
# NCI/ADR-RES = system: NCI/ADR-RES
# HCT-116 = system: HCT-116
# K562 = system: K562
# ACHN = system: ACHN
# Malme-3M = system: Malme-3M
# U-251 = system: U-251
# DU-145 = system: DU-145
# HL-60 = system: HL-60
# COLO 205 = system: COLO 205
# OVCAR-4 = system: OVCAR-4
# TK-10 = system: TK-10
# MDA-MB-435 = system: MDA-MB-435
# SK-MEL-2 = system: SK-MEL-2
# SF-268 = system: SF-268
# KM12 = system: KM12
# NCI-H23 = system: NCI-H23
# SK-MEL-5 = system: SK-MEL-5
# T47D = system: T47D
# A498 = system: A498
# OVCAR-8 = system: OVCAR-8
# SR = system: SR
# CCRF-CEM = system: CCRF-CEM
# MDA-MB-231 = system: MDA-MB-231
# SNB-75 = system: SNB-75
# OVCAR-3 = system: OVCAR-3
# HT-29 = system: HT-29
# BT-549 = system: BT-549
# NCI-H226 = system: NCI-H226
# SF-295 = system: SF-295
# 786-0 = system: 786-0
# SF-539 = system: SF-539
# SNB-19 = system: SNB-19
# IGROV-1 = system: IGROV-1
# HOP-62 = system: HOP-62
# EKVX = system: EKVX
# SK-OV-3 = system: SK-OV-3
# LOX IMVI = system: LOX IMVI
# Hs-578T = system: Hs-578T
smiles,measurement,setting,value
OCC1NC(COC2OC(CO)C(O)C(O)C2O)C(O)C(O)C1O (centres undefined),GI50,MCF7,> 100 µM (inactive)
same,GI50,UO-31,> 100 µM (inactive)
same,GI50,NCI-H460,> 100 µM (inactive)
same,GI50,A549,> 100 µM (inactive)
same,GI50,MDA-N,> 100 µM (inactive)
same,GI50,HCT-15,> 100 µM
same,GI50,MOLT-4,> 100 µM (inactive)
same,GI50,SK-MEL-28,> 100 µM (inactive)
same,GI50,M14,> 100 µM (inactive)
same,GI50,HOP-92,> 100 µM (inactive)
same,GI50,RXF 393,> 100 µM (inactive)
same,GI50,CAKI-1,> 100 µM (inactive)
same,GI50,OVCAR-5,> 100 µM (inactive)
same,GI50,SN12C,> 100 µM (inactive)
same,GI50,HCC 2998,> 100 µM (inactive)
same,GI50,SW-620,> 100 µM (inactive)
same,GI50,PC-3,> 100 µM (inactive)
same,GI50,RPMI-8226,> 100 µM (inactive)
same,GI50,NCI-H522,> 100 µM (inactive)
same,GI50,UACC-62,> 100 µM (inactive)
same,GI50,UACC-257,> 100 µM (inactive)
same,GI50,NCI/ADR-RES,> 100 µM (inactive)
same,GI50,HCT-116,> 100 µM (inactive)
same,GI50,K562,> 100 µM (inactive)
same,GI50,ACHN,> 100 µM (inactive)
same,GI50,Malme-3M,> 100 µM (inactive)
same,GI50,U-251,> 100 µM (inactive)
same,GI50,DU-145,> 100 µM (inactive)
same,GI50,HL-60,> 100 µM (inactive)
same,GI50,COLO 205,> 100 µM (inactive)
same,GI50,OVCAR-4,> 100 µM (inactive)
same,GI50,TK-10,> 100 µM (inactive)
same,GI50,MDA-MB-435,> 100 µM (inactive)
same,GI50,SK-MEL-2,> 100 µM (inactive)
same,GI50,SF-268,> 100 µM (inactive)
same,GI50,KM12,> 100 µM (inactive)
same,GI50,NCI-H23,> 100 µM (inactive)
same,GI50,SK-MEL-5,> 100 µM (inactive)
same,GI50,T47D,> 100 µM (inactive)
same,GI50,A498,> 100 µM (inactive)
same,GI50,OVCAR-8,> 100 µM (inactive)
same,GI50,SR,> 100 µM (inactive)
same,GI50,CCRF-CEM,> 100 µM (inactive)
same,GI50,MDA-MB-231,> 100 µM (inactive)
same,GI50,SNB-75,> 100 µM (inactive)
same,GI50,OVCAR-3,> 100 µM (inactive)
same,GI50,HT-29,> 100 µM (inactive)
same,GI50,BT-549,> 100 µM (inactive)
same,GI50,NCI-H226,> 100 µM (inactive)
same,GI50,SF-295,> 100 µM (inactive)
same,GI50,786-0,> 100 µM (inactive)
same,GI50,SF-539,> 100 µM (inactive)
same,GI50,SNB-19,> 100 µM (inactive)
same,GI50,IGROV-1,> 100 µM (inactive)
CO/C(N)=C(C#N)/N=C/c1cccnc1,GI50,MCF7,> 100 µM (inactive)
same,GI50,A549,> 100 µM (inactive)
same,GI50,HOP-62,> 100 µM (inactive)
same,GI50,MDA-N,> 100 µM (inactive)
same,GI50,HCT-15,> 100 µM
same,GI50,MOLT-4,> 100 µM (inactive)
same,GI50,SK-MEL-28,> 100 µM (inactive)
same,GI50,M14,> 100 µM (inactive)
same,GI50,HOP-92,> 100 µM (inactive)
same,GI50,RXF 393,> 100 µM (inactive)
same,GI50,CAKI-1,71.9 µM (inactive)
same,GI50,OVCAR-5,> 100 µM (inactive)
same,GI50,SN12C,> 100 µM (inactive)
same,GI50,HCC 2998,> 100 µM (inactive)
same,GI50,SW-620,> 100 µM (inactive)
same,GI50,PC-3,> 100 µM (inactive)
same,GI50,RPMI-8226,> 100 µM (inactive)
same,GI50,UACC-62,> 100 µM (inactive)
same,GI50,UACC-257,> 100 µM (inactive)
same,GI50,NCI/ADR-RES,> 100 µM (inactive)
same,GI50,HCT-116,> 100 µM (inactive)
same,GI50,EKVX,> 100 µM (inactive)
same,GI50,K562,> 100 µM (inactive)
same,GI50,Malme-3M,> 100 µM (inactive)
same,GI50,U-251,> 100 µM (inactive)
same,GI50,DU-145,> 100 µM (inactive)
same,GI50,HL-60,> 100 µM (inactive)
same,GI50,COLO 205,> 100 µM (inactive)
same,GI50,OVCAR-4,> 100 µM (inactive)
same,GI50,SK-OV-3,> 100 µM (inactive)
same,GI50,TK-10,> 100 µM (inactive)
same,GI50,MDA-MB-435,> 100 µM (inactive)
same,GI50,SK-MEL-2,> 100 µM (inactive)
same,GI50,SF-268,> 100 µM (inactive)
same,GI50,KM12,> 100 µM (inactive)
same,GI50,NCI-H23,> 100 µM (inactive)
same,GI50,SK-MEL-5,> 100 µM (inactive)
same,GI50,T47D,> 100 µM (inactive)
same,GI50,A498,> 100 µM (inactive)
same,GI50,OVCAR-8,> 100 µM (inactive)
same,GI50,CCRF-CEM,35.8 µM (inactive)
same,GI50,MDA-MB-231,> 100 µM (inactive)
same,GI50,SNB-75,> 100 µM (inactive)
same,GI50,OVCAR-3,> 100 µM (inactive)
same,GI50,LOX IMVI,> 100 µM (inactive)
same,GI50,HT-29,> 100 µM (inactive)
same,GI50,BT-549,> 100 µM (inactive)
same,GI50,NCI-H226,> 100 µM (inactive)
same,GI50,SF-295,> 100 µM (inactive)
same,GI50,786-0,> 100 µM (inactive)
same,GI50,SF-539,> 100 µM (inactive)
same,GI50,IGROV-1,> 100 µM (inactive)
O=C(CC(C(=O)c1cccs1)c1cccs1)c1ccsc1 (centres undefined),GI50,MCF7,32.8 µM (inactive)
same,GI50,UO-31,43.5 µM (inactive)
same,GI50,NCI-H460,42.4 µM (inactive)
same,GI50,A549,43.3 µM (inactive)
same,GI50,HOP-62,73.6 µM (inactive)
same,GI50,MDA-N,19.4 µM (inactive)
same,GI50,HCT-15,38.3 µM
same,GI50,MOLT-4,46.2 µM (inactive)
same,GI50,SK-MEL-28,47.5 µM (inactive)
same,GI50,M14,38.2 µM (inactive)
same,GI50,CAKI-1,> 100 µM (inactive)
same,GI50,OVCAR-5,> 100 µM (inactive)
same,GI50,SN12C,39.4 µM (inactive)
same,GI50,HCC 2998,57.4 µM (inactive)
same,GI50,SW-620,44.1 µM (inactive)
same,GI50,PC-3,35.8 µM (inactive)
same,GI50,RPMI-8226,36.1 µM (inactive)
same,GI50,UACC-62,37.5 µM (inactive)
same,GI50,UACC-257,60 µM (inactive)
same,GI50,NCI/ADR-RES,32.7 µM (inactive)
same,GI50,HCT-116,36.6 µM (inactive)
same,GI50,EKVX,66.1 µM (inactive)
same,GI50,K562,46 µM (inactive)
same,GI50,ACHN,67 µM (inactive)
same,GI50,Malme-3M,40.8 µM (inactive)
same,GI50,U-251,41.6 µM (inactive)
same,GI50,DU-145,> 100 µM (inactive)
same,GI50,HL-60,29 µM (inactive)
same,GI50,COLO 205,45.3 µM (inactive)
same,GI50,OVCAR-4,67.1 µM (inactive)
same,GI50,SK-OV-3,50.1 µM (inactive)
same,GI50,TK-10,> 100 µM (inactive)
same,GI50,MDA-MB-435,20.2 µM (inactive)
same,GI50,SK-MEL-2,35.7 µM (inactive)
same,GI50,SF-268,56.4 µM (inactive)
same,GI50,KM12,34 µM (inactive)
same,GI50,NCI-H23,35.6 µM (inactive)
same,GI50,SK-MEL-5,39.6 µM (inactive)
same,GI50,Hs-578T,> 100 µM (inactive)
same,GI50,T47D,39.6 µM (inactive)
same,GI50,A498,49.7 µM (inactive)
same,GI50,OVCAR-8,59.2 µM (inactive)
same,GI50,SR,37.2 µM (inactive)
same,GI50,CCRF-CEM,37.9 µM (inactive)
same,GI50,MDA-MB-231,38 µM (inactive)
same,GI50,SNB-75,40.2 µM (inactive)
same,GI50,LOX IMVI,10.2 µM (inactive)
same,GI50,HT-29,57.9 µM (inactive)
same,GI50,NCI-H226,> 100 µM (inactive)
same,GI50,786-0,50.5 µM (inactive)
same,GI50,SF-539,67 µM (inactive)
same,GI50,SNB-19,75.2 µM (inactive)
same,GI50,IGROV-1,> 100 µM (inactive)
